Reference: publication PMC6445168, “Design, synthesis and antimalarial activity of novel bis{N-[(pyrrolo[1,2-a]quinoxalin-4-yl)benzyl]-3-aminopropyl}amine derivatives” (Journal of Enzyme Inhibition and Medicinal Chemistry, 2017)

What was measured:
[1] = test system: P. falciparum CQ-resistant strain W2; experiment: In vitro antiplasmodial activity, SYBR Green I fluorescence-based method, W2 strain; assay type: cell-based, Plasmodium falciparum; settings: for IC50: Plasmodium falciparum, chloroquine-resistant strain W2, 48 h incubation, read-out: P. falciparum strains IC50 values, W2; for Selectivity Index HepG2/W2: ratio CC50 HepG2 / IC50 W2
Method: (§1) The in vitro antiplasmodial activities were tested over concentrations ranging from 39 nM to 40 μM against culture-adapted Plasmodium falciparum reference strains 3D7 and W2. […] The parasites were cultivated in RPMI medium (Sigma-Aldrich, Lyon, France) supplemented with 0.5% Albumax I (Life Technologies corporation, Paisley, United Kingdom), hypoxanthine (Sigma-Aldrich), gentamicin (Sigma-Aldrich), and human erythrocytes and were incubated at 37 °C in a candle jar, as described previously. The P. falciparum drug susceptibility test was carried out in 96-well flat bottom sterile plates under a final volume of 250 μL. After a 48 h incubation with the drugs, quantities of DNA in treated and control cultures of parasites in human erythrocytes were compared according to the SYBR Green I (Sigma-Aldrich) fluorescence-based method[38]^,[39]. Briefly, after incubation, plates were frozen at -20 °C until use. They were then left to thaw for 2 h at room temperature and 100 μL of the homogenized culture were transferred to 96-well flat bottom sterile black plates (Nunc Inc) already containing 100 μL of the SYBR Green I lysis buffer (2xSYBR Green, 20 mM Tris base pH 7.5, 5 mM EDTA, 0.008% w/v saponin, 0.08% w/v Triton X-100). […] Plates were incubated for 1 h at room temperature and then read on a fluorescence plate reader (Tecan, Austria) using excitation and emission wavelengths of 485 and 535 nm, respectively.

[2] = test system: P. falciparum CQ-sensitive strain 3D7; experiment: In vitro antiplasmodial activity, SYBR Green I fluorescence-based method, 3D7 strain; assay type: cell-based, Plasmodium falciparum; settings: for IC50: Plasmodium falciparum, 3D7, 48 h, chloroquine-sensitive strain 3D7, 48 h incubation, read-out: P. falciparum strains IC50 values, 3D7; for Selectivity Index HepG2/3D7: ratio CC50 HepG2 / IC50 3D7
Method: as §1

[3] = Cytotoxicity evaluation, MTT assay; assay type: cell-based, human; settings: human, HepG2 cells (hepatocarcinoma cell line, ATCC HB-8065); HepG2, 72 h incubation, mean ± SD of three independent experiments
Method: These assays were performed toward the human HepG2 cell line (HepG2 CC50). […] These cells express many of the hepatocyte-specific metabolic enzymes, thus enabling the cytotoxicity of tested product metabolites to be evaluated. […] Duplicate assays were performed for each sample. Each plate-well was then microscope-examined for detecting possible precipitate formation before the medium was aspirated from the wells. 100 μL of MTT solution (0.5 mg/mL in medium without FCS) were then added to each well. […] After this time, the MTT solution was removed and DMSO (100 μL) was added to dissolve the resulting blue formazan crystals. Plates were shaken vigorously (300 rpm) for 5 minutes. The absorbance was measured at 570 nm with 630 nm as reference wavelength spectrophotometer using a BIO-TEK ELx808 Absorbance Microplate Reader. DMSO was used as blank and doxorubicin (Sigma Aldrich) as positive control. Cell viability was calculated as percentage of control (cells incubated without compound). The 50% cytotoxic concentration was determined from the dose-response curve by using the TableCurve 2D V5.0 software (Systat Software, San Jose, CA).

[4] = test system: L. donovani (MHOM/IN/00/DEVI) promastigotes; experiment: In vitro antileishmanial activity on promastigotes, MTT assay; assay type: cell-based; settings: Leishmania donovani, 72 h incubation, mean ± SD of three independent experiments
Method: L. donovani (MHOM/IN/00/DEVI) used in this study was provided by the CNR Leishmania (Montpellier, France). The effects of the tested compounds on the growth of L. donovani (MHOM/IN/00/DEVI)promastigotes were assessed by MTT assay[41] .Briefly, promastigotes in log-phase in Schneider′s medium supplemented with 20% fetal calf serum (FCS), 2 mM L-glutamine and antibiotics (100 U/mL penicillin and 100 μg/mL streptomycin), were incubated at an average density of 10^6 parasites/mL in sterile 96-well plates with various concentrations of compounds dissolved in DMSO (final concentration less than 0.5% v/v), in duplicate. Appropriate controls treated by DMSO and pentamidine or amphotericin B (reference drugs purchased from Sigma-Aldrich) were added to each set of experiments. After a 72 h incubation period at 27 °C, parasite metabolic activity was determined. Each plate-well was then microscope-examined for detecting possible precipitate formation. 20 μL of MTT 3–(4,5-dimethylthiazol-2-yl)-2,5-diphenyltetrazolium bromide) solution (5 mg/mL) were added to each well followed by incubation for another 4 h. The enzyme reaction was then stopped by addition of 100 μL of 50% isopropanol – 10% sodium dodecyl sulfate[42] .Plates were shaken vigorously (300 rpm) for 10 minutes and the absorbance measured in a plate reader at 570 nm in a BIO-TEK ELx808 Absorbance Microplate Reader. […] IC50 were calculated by non-linear regression analysis processed on doseresponse curves, using TableCurve 2D V5.0 software. IC50 values represent the mean value calculated from three independent experiments.

SMILES | IC50 [1] [µM] | IC50 [2] [µM] | IC50 [4] [µM] | Selectivity Index HepG2/W2 [1] | Selectivity Index HepG2/3D7 [2] | CC50 at 72 h [3] [µM]
CN(CCCNCc1ccc(-c2nc3ccccc3n3cccc23)cc1)CCCNCc1ccc(-c2nc3ccccc3n3cccc23)cc1 [1b, Bis{N-[4-(pyrrolo[1,2-a]quinoxalin-4-yl)benzyl]-3-aminopropyl}methylamine] | 4.2 ± 0.65 | 1.2 ± 0.2 | – | 0.37 | 1.30 | 1.56 ± 0.6
COc1ccc2nc(-c3ccc(CNCCCN(C)CCCNCc4ccc(-c5nc6ccc(OC)cc6n6cccc56)cc4)cc3)c3cccn3c2c1 [1f, Bis{N-[4–(8-methoxypyrrolo[1,2-a]quinoxalin-4-yl)benzyl]-3-aminopropyl}methylamine] | 0.13 ± 0.01 | 5.85 ± 0.07 | 4.25 ± 0.2 | 26 | 0.58 | 3.38 ± 0.9
CN(CCCNCc1cccc(-c2nc3ccccc3n3cccc23)c1)CCCNCc1cccc(-c2nc3ccccc3n3cccc23)c1 [1m, Bis{N-[3-(pyrrolo[1,2-a]quinoxalin-4-yl)benzyl]-3-aminopropyl}methylamine] | 0.12 ± 0.01 | 1.07 ± 0.16 | 2.8 ± 0.1 | 16.17 | 1.81 | 1.94 ± 1
c1cc(CNCCCN2CCN(CCCNCc3cccc(-c4nc5ccccc5n5cccc45)c3)CC2)cc(-c2nc3ccccc3n3cccc23)c1 [1n, Bis{N-[3-(pyrrolo[1,2-a]quinoxalin-4-yl)benzyl]-3-aminopropyl}piperazine] | 0.05 ± 0.01 | 0.37 ± 0.04 | 3.71 ± 0.4 | 40.6 | 5.49 | 2.03 ± 1.2
COc1ccc2nc(-c3cccc(CNCCCN(C)CCCNCc4cccc(-c5nc6ccc(OC)cc6n6cccc56)c4)c3)c3cccn3c2c1 [1o, Bis{N-[3–(8-methoxypyrrolo[1,2-a]quinoxalin-4-yl)benzyl]-3-aminopropyl}methylamine] | 0.206 ± 0.03 | 0.18 ± 0.02 | 3.51 ± 0.1 | 7.28 | 8.33 | 1.5 ± 0.9
c1ccc(-c2nc3ccccc3n3cc(CNCCCN4CCN(CCCNCc5cc6c(-c7ccccc7)nc7ccccc7n6c5)CC4)cc23)cc1 [1r, Bis{N-[(4-phenylpyrrolo[1,2-a]quinoxalin-2-yl)methyl]-3-aminopropyl}piperazine] | 0.75 ± 0.1 | 7.22 ± 0.77 | – | – | – | –
COc1cccc2nc(-c3ccc(CNCCCN(C)CCCNCc4ccc(-c5nc6cccc(OC)c6n6cccc56)cc4)cc3)c3cccn3c12 [1h, Bis{N-[4–(9-methoxypyrrolo[1,2-a]quinoxalin-4-yl)benzyl]-3-aminopropyl}methylamine] | 0.44 ± 0.11 | 0.25 ± 0.04 | 2.07 ± 0.02 | 5.54 | 9.76 | 2.44 ± 0.4
COc1ccc2c(c1)nc(-c1ccc(CNCCCN(C)CCCNCc3ccc(-c4nc5cc(OC)ccc5n5cccc45)cc3)cc1)c1cccn12 [1d, Bis{N-[4–(7-methoxypyrrolo[1,2-a]quinoxalin-4-yl)benzyl]-3-aminopropyl}methylamine] | 0.34 ± 0.04 | 4.14 ± 0.03 | 3.89 ± 0.3 | 7.56 | 0.62 | 2.57 ± 0.7
c1ccc2c(c1)nc(-c1ccc(CNCCCNCCCNCc3ccc(-c4nc5ccccc5n5cccc45)cc3)cc1)c1cccn12 [1a, Bis{N-[4-(pyrrolo[1,2-a]quinoxalin-4-yl)benzyl]-3-aminopropyl}amine] | 0.85 ± 0.15 | 3.42 ± 0.54 | 1 ± 0.2 | 2.13 | 0.53 | 1.81 ± 0.1
COc1ccc2nc(-c3cccc(CNCCCN4CCN(CCCNCc5cccc(-c6nc7ccc(OC)cc7n7cccc67)c5)CC4)c3)c3cccn3c2c1 [1p, Bis{N-[3–(8-methoxypyrrolo[1,2-a]quinoxalin-4-yl)benzyl]-3-aminopropyl}piperazine] | 0.17 ± 0.03 | 0.04 ± 0.004 | 3.39 ± 0.4 | 9.23 | 39.25 | 1.57 ± 0.8
COc1ccc2c(c1)nc(-c1ccc(CNCCCN(CCCNCc3ccc(-c4nc5cc(OC)ccc5n5cccc45)cc3)CCCNCc3ccc(-c4nc5cc(OC)ccc5n5cccc45)cc3)cc1)c1cccn12 [1s, Tris{N-[4–(7-methoxypyrrolo[1,2-a]quinoxalin-4-yl)benzyl]-3-aminopropyl}amine] | 0.29 ± 0.05 | 0.2 ± 0.04 | ≥ 10 | 5.72 | 8.30 | 1.66 ± 0.5
C[C@@H]1[C@H](O)[C@@H](C)/C=C/C=C/C=C/C=C/C=C/C=C/C=C/[C@H](O[C@@H]2O[C@H](C)[C@@H](O)[C@H](N)[C@@H]2O)C[C@@H]2O[C@](O)(C[C@@H](O)C[C@@H](O)[C@H](O)CC[C@@H](O)C[C@@H](O)CC(=O)O[C@H]1C)C[C@H](O)[C@H]2C(=O)O [Amphotericin B, reference compound] | – | – | 0.1 ± 0.04 | – | – | –

Continued, in another order:

IC50 [1] [µM] | IC50 [2] [µM] | IC50 [4] [µM] | SMILES | Selectivity Index HepG2/W2 [1] | Selectivity Index HepG2/3D7 [2] | CC50 at 72 h [3] [µM]
0.49 ± 0.16 | 0.26 ± 0.03 | 4.26 ± 0.1 | CCOc1ccn2c1c(-c1ccc(CNCCCN(C)CCCNCc3ccc(-c4nc5ccccc5n5ccc(OCC)c45)cc3)cc1)nc1ccccc12 [1j, Bis{N-[4–(3-ethoxypyrrolo[1,2-a]quinoxalin-4-yl)benzyl]-3-aminopropyl}methylamine] | 3.98 | 7.50 | 1.95 ± 0.3
0.09 ± 0.01 | 0.19 ± 0.01 | ≥ 10 | CCOc1ccn2c1c(-c1ccc(CNCCCN3CCN(CCCNCc4ccc(-c5nc6ccccc6n6ccc(OCC)c56)cc4)CC3)cc1)nc1ccccc12 [1k, Bis{N-[4–(3-ethoxypyrrolo[1,2-a]quinoxalin-4-yl)benzyl]-3-aminopropyl}piperazine] | 16.44 | 7.79 | 1.48 ± 0.5
– | 1 ± 0.05 | 0.57 ± 0.1 | c1ccc2c(c1)cc1c(-c3ccc(CNCCCN4CCN(CCCNCc5ccc(-c6nc7ccccc7n7c6cc6ccccc67)cc5)CC4)cc3)nc3ccccc3n12 [1q, Bis{N-[4-(indolo[1,2-a]quinoxalin-6-yl)benzyl]-3-aminopropyl}piperazine] | – | – | 1.56 ± 0.7
3.4 ± 0.74 | 0.8 ± 0.12 | 1.14 ± 0.2 | c1ccc2c(c1)nc(-c1ccc(CNCCCN3CCN(CCCNCc4ccc(-c5nc6ccccc6n6cccc56)cc4)CC3)cc1)c1cccn12 [1c, Bis{N-[4-(pyrrolo[1,2-a]quinoxalin-4-yl)benzyl]-3-aminopropyl}piperazine] | 0.37 | 1.56 | 1.25 ± 0.3
1.39 ± 0.13 | 8.96 ± 0.69 | – | c1ccc(-c2cc3c(-c4ccc(CNCCCN5CCN(CCCNCc6ccc(-c7nc8ccccc8n8cc(-c9ccccc9)cc78)cc6)CC5)cc4)nc4ccccc4n3c2)cc1 [1l, Bis{N-[4–(2-phenylpyrrolo[1,2-a]quinoxalin-4-yl)benzyl]-3-aminopropyl}piperazine] | – | – | –
